Converted amounts (≈) assume the structure as drawn. Where two headings read alike, the source gives them in different places. Values belong to the compound of their own block, whether it stands above or below them.
Tests used:
A549 = test: Antiproliferative activity, Cell Titer 96 Aqueous One cell proliferation assay, A549; assay type: cell-based, human; details: for IC50: A549, 48 h of incubation; for SI (A549): selectivity index, IC50 fibroblasts/IC50 A549
Description: (§1) Primary dermal neonatal fibroblasts (PCS-201-010) and lung adenocarcinoma cell lines (A549 and H1975) were acquired from ATCC (Manassas, VA, USA). […] All experiments were conducted at 37 °C, 5% (v/v) CO2, and 99% humidity in the dark. For simplicity, the supplemented media will be referred from now on as DMEM. NSCLC cell lines used in this work represent two different cancer models with different driver mutations[27] (Table 1). […] Doxorubicin (1.5 μM) was used as a positive control and 0.1% (v/v) DMSO was used as a vector control in all biological replicates. After 48 h of incubation, cell viability was measured using the Cell Titer 96® Aqueous One solution cell proliferation assay (Promega, Madison, WI, USA) according to the manufacturer's instructions and procedures described previously.[26,28] The absorbance of the formazan produced was quantified with a Tecan microplate reader (Infinite M200 (Tecan, Mannedorf, Switzerland)) and analysis of the dose–response curves to determine the relative IC50 was performed with GraphPad Prism 8 software (GraphPad Software, La Jolla, CA, USA). The selectivity index (IC50 fibroblasts/IC50 lung cancer cell line) was used as a measurement of the specificity of MTX salts for lung cancer cells.

H1975 = test: Antiproliferative activity, Cell Titer 96 Aqueous One cell proliferation assay, H1975; assay type: cell-based, human; details: for IC50: H1975, 48 h of incubation; for SI (H1975): selectivity index, IC50 fibroblasts/IC50 H1975
Description: as §1

[1] = system: normal primary human dermal fibroblast; test: Cytotoxic effect in normal cells, Cell Titer 96 Aqueous One cell proliferation assay, fibroblasts; assay type: cell-based; details: 48 h of incubation
Description: as §1

A549 cells = test: Evaluation of apoptosis, annexin V/PI double staining, flow cytometry; assay type: cell-based, human; details: A549, 48 h of exposure to IC50 (DOX 1.5 μM)
Description: A549 cells were seeded on 6-well plates at a density of 2 × 10^5 cells per well and incubated for 48 h with the IC50 of salts ([C12mim]2[MTX], [C10mim]2[MTX], and [C10-3-picoline]2[MTX]) previously determined. Doxorubicin (1.5 μM) was used as a positive control and 0.1% (v/v) DMSO as a vector control. Cells were then detached from the wells and double stained using dead cell apoptosis annexin V (Thermo Fisher Scientific) according to the manufacturer's instructions. The percentage of live cells (unstained), cells in initial apoptosis (stained with annexin V-Alexa Fluor 488), cells in late apoptosis (double stained with annexin V-Alexa Fluor 488 and propidium iodide), or cells in necrosis (stained with propidium iodide) were quantified using an Attune acoustic focusing flow cytometer and the respective software (Thermo Fisher Scientific).
Cellular apoptosis is a process that leads to cell death. Using annexin V and propidium iodide (PI), cells could be divided into live cells, early apoptotic cells, late apoptotic cells, or necrotic cells, based on the differences in plasma membrane of these different stages. PI only enters cells with a permeabilized and/or compromised membrane (late apoptotic and necrotic cells, respectively), while annexin V-FITC binds to phosphatidylserine that translocates from the inner side of the plasma membrane to the outer side, staining cells in initial/late apoptosis.[31]

[2] = Solubility in water, visually determined
Description: To study the solubility and stability of the MTX salts, two different assays were performed. To measure the solubility, 1 μL of water was added dropwise to 1 mg of MTX salt and the solubility was visually determined.

[3] = UV-vis spectroscopy stability assay in DMEM biological medium; assay type: physicochemical; details: 48 h period of the biological assays
[4] = set-up: method as in doi:10.1016/j.trac.2017.09.009; details: cited from earlier work
[5] = set-up: method as in PMID 23292116; details: low solubility and low permeability; cited from earlier work

IC50 (A549): 0.6 ± 0.21 µM
IC50 (H1975): 10.2 ± 1.01 µM
Compound: CCCCCCCCCCCCn1cc[n+](C)c1.[Br-] [[C12mim][Br], reference compound]
SI (A549) (A549): 13.83
SI (H1975) (H1975): 0.8
IC50 [1]: 8.3 ± 0.92 µM

Compound: CCCCCCCCCC[n+]1cccc(C)c1.[Br-] [[C10-3-picoline][Br], reference compound]
IC50 (A549): 1.03 ± 0.01 µM
SI (A549) (A549): 48.5
IC50 (H1975): 29.3 ± 1.47 µM
IC50 [1]: > 50 µM

Compound: CCCCCCCCCC[n+]1cccc(C)c1.CCCCCCCCCC[n+]1cccc(C)c1.CN(Cc1cnc2nc(N)nc(N)c2n1)c1ccc(C(=O)N[C@@H](CCC(=O)[O-])C(=O)[O-])cc1 [[C10-3-picoline]2[MTX]]
IC50 (A549): 0.94 ± 0.03 µM
IC50 in the cancer cell line relative to [Na]2[MTX] (A549; A549, compared to [Na]2[MTX]): 4.06 fold
SI (A549) (A549): 11.3
IC50 (H1975): 29.1 ± 1.46 µM
SI (H1975) (H1975): 0.4
IC50 [1]: 10.6 ± 1.03 µM
Early apoptosis (A549 cells): 14.9 ± 6.5%
Late apoptosis (A549 cells): 9.4 ± 5.6%
Live cells (A549 cells): 75.3 ± 3.0%
Necrosis (A549 cells): 0.02 ± 0.02%
Solubility ([2]; in water at room temperature): 138.9 mg/mL

Compound: CCCCCCCCn1cc[n+](C)c1.CCCCCCCCn1cc[n+](C)c1.CN(Cc1cnc2nc(N)nc(N)c2n1)c1ccc(C(=O)NC(CCC(=O)[O-])C(=O)[O-])cc1 (stereo not drawn) [[C8mim]2[MTX]]
IC50 (A549): > 50 µM

Compound: CN(Cc1cnc2nc(N)nc(N)c2n1)c1ccc(C(=O)N[C@@H](CCC(=O)[O-])C(=O)[O-])cc1.[Na+].[Na+] [[Na]2[MTX]] [reference compound]
IC50 (A549): 3.82 ± 0.58 µM
IC50 (H1975): > 50 µM
IC50 [1]: > 50 µM
Solubility ([2]; in water at room temperature): 99.0 mg/mL

IC50 (A549): > 50 µM
Compound: CCn1cc[n+](C)c1 [[C2MIM][Br], reference compound]

IC50 (A549): > 50 µM
Compound: C[N+](C)(C)CCO.[Cl-] [[Choline][Cl], reference compound]

Compound: CCCCCCCCCCn1cc[n+](C)c1.CCCCCCCCCCn1cc[n+](C)c1.CN(Cc1cnc2nc(N)nc(N)c2n1)c1ccc(C(=O)N[C@@H](CCC(=O)[O-])C(=O)[O-])cc1 [[C10mim]2[MTX]]
IC50 (A549): 1.71 ± 0.23 µM
SI (A549) (A549): 4.5
IC50 (H1975): 14.9 ± 1.17 µM
SI (H1975) (H1975): 0.5
IC50 [1]: 7.61 ± 0.88 µM
Early apoptosis (A549 cells): 14.9 ± 5.0%
Late apoptosis (A549 cells): 10.7 ± 8.1%
Live cells (A549 cells): 73.2 ± 5.0%
Necrosis (A549 cells): 1.1 ± 1.8%
Solubility ([2]; in water at room temperature): 312.5 mg/mL

Compound: CN(Cc1cnc2nc(N)nc(N)c2n1)c1ccc(C(=O)N[C@@H](CCC(=O)[O-])C(=O)[O-])cc1.Cc1ccc[n+](CCO)c1.Cc1ccc[n+](CCO)c1 [[C2OH-3-picoline]2[MTX]]
IC50 (A549): > 50 µM
Solubility ([2]; in water at room temperature): 192.3 mg/mL

Compound: CN(Cc1cnc2nc(N)nc(N)c2n1)c1ccc(C(=O)NC(CCC(=O)[O-])C(=O)[O-])cc1.C[n+]1ccn(CCO)c1.C[n+]1ccn(CCO)c1 (stereo not drawn) [[C2OHmim]2[MTX]]
IC50 (A549): > 50 µM
Solubility ([2]; in water at room temperature): 476.2 mg/mL

Compound: CCCCCCn1cc[n+](C)c1.CCCCCCn1cc[n+](C)c1.CN(Cc1cnc2nc(N)nc(N)c2n1)c1ccc(C(=O)NC(CCC(=O)[O-])C(=O)[O-])cc1 (stereo not drawn) [[C6mim]2[MTX]]
IC50 (A549): > 50 µM

IC50 (A549): > 50 µM
Compound: C[n+]1ccn(CCO)c1 [[C2OHmim][Br], reference compound]

Compound: CN(Cc1cnc2nc(N)nc(N)c2n1)c1ccc(C(=O)NC(CCC(=O)[O-])C(=O)[O-])cc1.Cn1cc[n+](CCCCCCCCCCCCn2cc[n+](C)c2)c1 (stereo not drawn) [[MIMC12MIM][MTX]]
IC50 (A549): 12.4 ± 1.09 µM

Compound: CCCCCCCCCC[N+](C)(C)CCO.CCCCCCCCCC[N+](C)(C)CCO.CN(Cc1cnc2nc(N)nc(N)c2n1)c1ccc(C(=O)N[C@@H](CCC(=O)[O-])C(=O)[O-])cc1 [[N10,1,1,2OH]2[MTX]]
IC50 (A549): 19.2 ± 1.28 µM

Compound: CN(Cc1cnc2nc(N)nc(N)c2n1)c1ccc(C(=O)N[C@@H](CCC(=O)O)C(=O)O)cc1 [MTX, Methotrexate]
IC50 (A549; Homo sapiens): > 50 µM
Solubility [2]: 0.01 mg/mL (≈ 22 µM)
Stability in DMEM biological medium [3]: stability was retained
pKa (first acidic proton, carboxylic acid) [4]: 2.9
pKa (second acidic proton, carboxylic acid) [4]: 4.6
Class in the biopharmaceutical classification system [5]: class IV

Compound: COc1cccc2c1C(=O)c1c(O)c3c(c(O)c1C2=O)C[C@@](O)(C(=O)CO)C[C@@H]3O[C@H]1C[C@H](N)[C@H](O)[C@H](C)O1 [DOX, Doxorubicin, reference compound]
Early apoptosis (A549 cells): 9.3 ± 7.1%
Late apoptosis (A549 cells): 65.25 ± 30.4%
Live cells (A549 cells): 1.7 ± 1.8%
Necrosis (A549 cells): 23.7 ± 26.0%

Compound: CCCCCCCCCCCC[N+](C)(C)CCO.CCCCCCCCCCCC[N+](C)(C)CCO.CN(Cc1cnc2nc(N)nc(N)c2n1)c1ccc(C(=O)NC(CCC(=O)[O-])C(=O)[O-])cc1 (stereo not drawn) [[N12,1,1,2OH]2[MTX]]
IC50 (A549): 8.55 ± 0.93 µM

Compound: CN(Cc1cnc2nc(N)nc(N)c2n1)c1ccc(C(=O)N[C@@H](CCC(=O)[O-])C(=O)[O-])cc1.C[N+](C)(C)CCO.C[N+](C)(C)CCO [[Choline]2[MTX]]
IC50 (A549): > 50 µM
Increase in solubility in water [2]: 10 fold
Solubility [2]: 1087.0 mg/mL

Compound: CCn1cc[n+](C)c1.CCn1cc[n+](C)c1.CN(Cc1cnc2nc(N)nc(N)c2n1)c1ccc(C(=O)NC(CCC(=O)[O-])C(=O)[O-])cc1 (stereo not drawn) [[C2MIM]2[MTX]]
IC50 (A549): > 50 µM
Solubility ([2]; in water at room temperature): 500.0 mg/mL

IC50 (A549): > 50 µM
Compound: Cc1ccc[n+](CCO)c1 [[C2OH 3-picoline][Br], reference compound]

IC50 (A549): 1.1 ± 0.02 µM
IC50 (H1975): 19.2 ± 1.28 µM
Compound: CCCCCCCCCCn1cc[n+](C)c1.[Br-] [[C10mim][Br], reference compound]
SI (A549) (A549): 45.5
IC50 [1]: > 50 µM

Compound: CCCCCCCCCCCCn1cc[n+](C)c1.CCCCCCCCCCCCn1cc[n+](C)c1.CN(Cc1cnc2nc(N)nc(N)c2n1)c1ccc(C(=O)N[C@@H](CCC(=O)[O-])C(=O)[O-])cc1 [[C12mim]2[MTX]]
IC50 (A549): 0.55 ± 0.25 µM
SI (A549) (A549): 2.9
IC50 (H1975): 2.72 ± 0.43 µM
SI (H1975) (H1975): 0.6
Early apoptosis (A549 cells): 16.7 ± 7.3%
Late apoptosis (A549 cells): 10.2 ± 8.3%
Live cells (A549 cells): 72.9 ± 4.1%
Necrosis (A549 cells): 0.1 ± 0.2%
Solubility ([2]; in water at room temperature): 238.1 mg/mL

Source: article PMC12121626, “Synthesis, characterization and biological activity of methotrexate-derived salts in lung cancer cells” (RSC Medicinal Chemistry, 2025)
